Data published in the NIST ThermoML archive (doi:10.1021/je900311v).

What was measured:
[1] = 298.15 K; 101.33 kPa; Liquid
[2] = excess molar enthalpy (molar enthalpy of mixing); xn = mol fraction of the nth substance listed; settings: 298.15 K, 101 kPa, Liquid, Calvet calorimetry

CCCCCCCCCCCCCCCC [hexadecane]
Settings	mass density [kg/m3]
[1]	770.31

CCCCCC(=O)CC [3-octanone]
Settings	mass density [kg/m3]
[1]	817.77

CCCCCCC(C)=O [2-octanone] + CCCCCCCCCCCC
[2]
Settings	excess molar enthalpy [kcal/mol]
x1 = 0.035	0.0456
x1 = 0.0677	0.0821
x1 = 0.0982	0.111
x1 = 0.1267	0.136
x1 = 0.1564	0.159
x1 = 0.1841	0.177
x1 = 0.2101	0.193
x1 = 0.2345	0.205
x1 = 0.2613	0.217
x1 = 0.2862	0.226
x1 = 0.3096	0.234
x1 = 0.3314	0.24
x1 = 0.3519	0.245
x1 = 0.3712	0.248
x1 = 0.3931	0.252
x1 = 0.4135	0.254
x1 = 0.4325	0.255
x1 = 0.4499	0.255
x1 = 0.4504	0.256
x1 = 0.4596	0.256
x1 = 0.4698	0.256
x1 = 0.4804	0.256
x1 = 0.4915	0.256
x1 = 0.5031	0.255
x1 = 0.5138	0.255
x1 = 0.525	0.253
x1 = 0.5366	0.252
x1 = 0.5488	0.251
x1 = 0.5615	0.249
x1 = 0.5749	0.246
x1 = 0.5866	0.244
x1 = 0.5986	0.241
x1 = 0.6133	0.238
x1 = 0.6244	0.235
x1 = 0.6381	0.231
x1 = 0.6525	0.227
x1 = 0.6658	0.222
x1 = 0.6795	0.217
x1 = 0.6938	0.212
x1 = 0.7072	0.206
x1 = 0.721	0.2
x1 = 0.7355	0.193
x1 = 0.7505	0.186
x1 = 0.7661	0.177
x1 = 0.7808	0.17
x1 = 0.7961	0.161
x1 = 0.812	0.151
x1 = 0.8265	0.142
x1 = 0.8414	0.133
x1 = 0.857	0.122
x1 = 0.873	0.11
x1 = 0.8877	0.0994
x1 = 0.9032	0.0876
x1 = 0.9191	0.0745
x1 = 0.9356	0.0608
x1 = 0.9509	0.047
x1 = 0.9667	0.0326
x1 = 0.9831	0.0167

CCCCCCC(C)=O [2-octanone] + CCCCCCCCCCCCCCCC
[2]
Settings	excess molar enthalpy [kcal/mol]
x1 = 0.0446	0.0598
x1 = 0.0854	0.107
x1 = 0.1228	0.144
x1 = 0.1573	0.175
x1 = 0.1926	0.202
x1 = 0.2251	0.223
x1 = 0.255	0.241
x1 = 0.2827	0.255
x1 = 0.3084	0.266
x1 = 0.3324	0.274
x1 = 0.3585	0.282
x1 = 0.3826	0.288
x1 = 0.405	0.292
x1 = 0.4258	0.295
x1 = 0.448	0.298
x1 = 0.4685	0.299
x1 = 0.4876	0.299
x1 = 0.4933	0.3
x1 = 0.5044	0.3
x1 = 0.5161	0.299
x1 = 0.5282	0.299
x1 = 0.541	0.298
x1 = 0.5519	0.297
x1 = 0.5633	0.295
x1 = 0.5751	0.294
x1 = 0.5874	0.291
x1 = 0.6003	0.289
x1 = 0.6138	0.286
x1 = 0.6257	0.283
x1 = 0.6508	0.275
x1 = 0.6642	0.27
x1 = 0.6781	0.265
x1 = 0.6926	0.259
x1 = 0.7048	0.254
x1 = 0.7174	0.248
x1 = 0.737	0.241
x1 = 0.7443	0.234
x1 = 0.7583	0.226
x1 = 0.7732	0.217
x1 = 0.7861	0.209
x1 = 0.7993	0.2
x1 = 0.8131	0.19
x1 = 0.8273	0.18
x1 = 0.84	0.17
x1 = 0.8531	0.159
x1 = 0.8666	0.148
x1 = 0.8805	0.135
x1 = 0.8949	0.122
x1 = 0.9075	0.109
x1 = 0.9204	0.0961
x1 = 0.9337	0.0819
x1 = 0.9473	0.0667
x1 = 0.9614	0.0499
x1 = 0.9739	0.0346
x1 = 0.9868	0.0177

CCCCCC(=O)CC [3-octanone] + CCCCCCCCCCCCCC
[2]
Settings	excess molar enthalpy [kcal/mol]
x1 = 0.0384	0.0466
x1 = 0.074	0.0845
x1 = 0.107	0.116
x1 = 0.1377	0.141
x1 = 0.1664	0.163
x1 = 0.1933	0.181
x1 = 0.2233	0.198
x1 = 0.2512	0.213
x1 = 0.2771	0.224
x1 = 0.3013	0.233
x1 = 0.324	0.241
x1 = 0.3452	0.247
x1 = 0.3687	0.252
x1 = 0.3907	0.257
x1 = 0.4111	0.26
x1 = 0.4303	0.262
x1 = 0.4482	0.263
x1 = 0.465	0.264
x1 = 0.4833	0.264
x1 = 0.5005	0.264
x1 = 0.5166	0.263
x1 = 0.5316	0.261
x1 = 0.5458	0.259
x1 = 0.5618	0.257
x1 = 0.5762	0.254
x1 = 0.5904	0.251
x1 = 0.6033	0.248
x1 = 0.6131	0.245
x1 = 0.6255	0.242
x1 = 0.6385	0.239
x1 = 0.6519	0.235
x1 = 0.666	0.23
x1 = 0.6781	0.226
x1 = 0.6906	0.221
x1 = 0.7037	0.216
x1 = 0.7172	0.21
x1 = 0.7313	0.204
x1 = 0.7459	0.197
x1 = 0.7586	0.19
x1 = 0.7716	0.183
x1 = 0.7852	0.176
x1 = 0.7992	0.167
x1 = 0.8138	0.158
x1 = 0.8288	0.149
x1 = 0.8419	0.14
x1 = 0.8555	0.13
x1 = 0.8694	0.12
x1 = 0.8838	0.109
x1 = 0.8988	0.0967
x1 = 0.9142	0.0835
x1 = 0.9552	0.0458
x1 = 0.9696	0.0313
x1 = 0.9846	0.0167

CCCCCCC(C)=O [2-octanone]
Settings	mass density [kg/m3]
[1]	814.28
